Measured values published in ChEMBL document CHEMBL5360646, “Optimization of M3 Antagonist-PDE4 Inhibitor (MAPI) Dual Pharmacology Molecules for the Treatment of COPD” (J Med Chem, 2023).

Assays:
[1] = Toxicity in ferret assessed as appearance of nausea-like behavior at 10 nmol/kg, IT(Intratracheal) and measured for 4 hrs by behavioral analysis; design: species or system Mustela putorius furo; details: in vivo, inhaled_or_intranasal
[2] = Toxicity in ferret assessed as appearance of nausea-like behavior at 10 nmol/kg,po and measured for 4 hrs by behavioral analysis; design: species or system Mustela putorius furo; details: in vivo
[3] = Toxicity in ferret assessed as emetic response at 10 nmol/kg, IT(Intratracheal) and measured for 4 hrs by behavioral analysis; design: species or system Mustela putorius furo; details: in vivo, inhaled_or_intranasal
[4] = Toxicity in ferret assessed as emetic response at 10 nmol/kg,po and measured for 4 hrs by behavioral analysis; design: species or system Mustela putorius furo; details: in vivo
[5] = Antiinflammatory activity against LPS-stimulated human PBMC cells assessed reduction in TNFalpha level incubated for 18 hrs by ELISA analysis; type: functional, cell-based; details: for IC50: Homo sapiens, PBMC, 18 h; for pIC50: pbmc
Rattus norvegicus [6] = assay: Anti-bronchospastic activity in carbachol-induced bronchospasm Sprague-Dawley rat model assessed as inhibition of carbachol-induced bronchoconstriction at 3 nmol/kg, IT(Intratracheal) administered 16 hr prior to carbachol challenge; type: functional; design: scale not given: the % may be the effect or the level left
[7] = Metabolic stability in rat liver microsomes assessed as intrinsic clerance at 1 uM and measured upto 60 mins by HPLC-MS/MS analysis; type: ADME, Microsome; details: for CLH: microsomes, 1 h, 1 µM
[8] = Metabolic stability in human liver microsomes assessed as intrinsic clerance at 1 uM and measured upto 60 mins by HPLC-MS/MS analysis; type: ADME, Microsome; details: for microsomal CLint at 1 µM: liver microsomes, read-out: CLH; for CLH: microsomes, 1 h, 1 µM
Rattus norvegicus [9] = assay: Anti-bronchospastic activity in carbachol-induced bronchospasm Sprague-Dawley rat model assessed as inhibition of carbachol-induced bronchoconstriction at 3 nmol/kg, IT(Intratracheal) administered 1 hr prior to carbachol challenge; type: functional; design: scale not given: the % may be the effect or the level left
[10] = biological target: 3',5'-cyclic-AMP phosphodiesterase 4B (Homo sapiens, UniProt Q07343); assay: Inhibition of human recombinant PDE4B2 expressed in baculovirus expression system using cAMP as substrate incubated for 2 hrs by HTRF assay
[11] = Antiinflammatory activity against LPS-stimulated rat PBMC cells assessed reduction in TNFalpha level incubated for 18 hrs by ELISA analysis; type: functional, cell-based
Rattus norvegicus [12] = assay: Anti-bronchospastic activity in carbachol-induced bronchospasm Sprague-Dawley rat model assessed as inhibition of carbachol-induced bronchoconstriction administered IT(Intratracheal) for 1 hr prior to carbachol challenge; type: functional
[13] = Ratio of ED50 for Anti-inflammatory activity against OVA-sensitized Brown-Norway rat airway inflammation model to ED50 for Anti-bronchospastic activity in carbachol-induced bronchospasm Sprague-Dawley rat model; type: functional
Trachea = assay: Bronchoconstriction activity in Sprague-Dawley rat trachea assessed as inhibition of carbachol-induced tracheal contraction; type: functional, tissue-based; details: for IC50: Rattus norvegicus, Sprague-Dawley, Trachea
[14] = biological target: Muscarinic acetylcholine receptor M3 (Homo sapiens, UniProt P20309); assay: Displacement of [3H]N-methylscopolamine chloride from human muscarinic M3 receptor incubated for 2 hrs by radioligand binding assay
Rattus norvegicus [15] = assay: Anti-inflammatory activity against OVA-sensitized Brown-Norway rat airway inflammation model assessed as inhibition of OVA-induced eosinophil influx administered IT(Intratracheal) 2 hrs prior to OVA challenge; type: functional
[16] = Metabolic stability in human lung S9 fraction assessed as half life at 1 uM and measured upto 60 mins in presence of NADPH by LC-MS/MS analysis; type: ADME, subcellular; details: for half-life at 1 µM: lung S9 fraction; for t1/2: s9, 1 h, 1 µM, 1 h
[17] = Metabolic stability in rat plasma assessed as half life at 5 uM and measured upto 180 mins by HPLC-MS/MS analysis; type: ADME, cell-free; details: for t1/2: 3 h, 5 µM
[18] = Metabolic stability in human plasma assessed as half life at 5 uM and measured upto 180 mins by HPLC-MS/MS analysis; type: ADME, cell-free
[19] = Metabolic stability in rat lung S9 fraction assessed as half life at 1 uM and measured upto 60 mins in presence of NADPH by LC-MS/MS analysis; type: ADME, subcellular; details: for half-life at 1 µM: lung S9 fraction; for t1/2: s9, 1 h, 1 µM, 1 h
Rattus norvegicus [20] = assay: Anti-inflammatory activity against OVA-sensitized Brown-Norway rat airway inflammation model assessed as inhibition of OVA-induced eosinophil influx at 1000 nmol/kg,IT(Intratracheal) pretreated 24 hrs prior to OVA challenge and measured after 48 hrs by automated cell counter analysis; type: functional; design: scale not given: the % may be the effect or the level left; details: time 72 hrs
Rattus norvegicus [21] = assay: Anti-inflammatory activity against OVA-sensitized Brown-Norway rat airway inflammation model assessed as inhibition of OVA-induced eosinophil influx at 100 nmol/kg,IT(Intratracheal) pretreated 2 hrs prior to OVA challenge by automated cell counter analysis; type: functional; design: scale not given: the % may be the effect or the level left
Rattus norvegicus [22] = assay: Anti-bronchospastic activity in carbachol-induced bronchospasm Sprague-Dawley rat model assessed as inhibition of carbachol-induced bronchoconstriction at 10 nmol/kg, IT(Intratracheal) administered 1 hr prior to carbachol challenge; type: functional; design: scale not given: the % may be the effect or the level left
Rattus norvegicus [23] = assay: Anti-bronchospastic activity in carbachol-induced bronchospasm Sprague-Dawley rat model assessed as inhibition of carbachol-induced bronchoconstriction at 10 nmol/kg, IT(Intratracheal) administered 16 hr prior to carbachol challenge; type: functional; design: scale not given: the % may be the effect or the level left
Rattus norvegicus [24] = assay: Anti-bronchospastic activity in carbachol-induced bronchospasm Sprague-Dawley rat model assessed as inhibition of carbachol-induced bronchoconstriction at 30 nmol/kg, IT(Intratracheal) administered 1 hr prior to carbachol challenge; type: functional; design: scale not given: the % may be the effect or the level left
[25] = Toxicity in pilocarpine hydrochloride induced salivation Sprague-Dawley rat model assessed as inhibition of salivary secretion at 3 mM,INH for 10 mins; details: Sprague-Dawley, in vivo, inhaled or intranasal, read-out: Activity
Rattus norvegicus [26] = assay: Anti-bronchospastic activity in carbachol-induced bronchospasm Sprague-Dawley rat model assessed as inhibition of carbachol-induced bronchoconstriction at 30 nmol/kg, IT(Intratracheal) administered 16 hr prior to carbachol challenge; type: functional; design: scale not given: the % may be the effect or the level left
[27] = Rattus norvegicus, Sprague-Dawley, read-out: ED50

Chain of Muscarinic acetylcholine receptor M3 (P20309 whole entry): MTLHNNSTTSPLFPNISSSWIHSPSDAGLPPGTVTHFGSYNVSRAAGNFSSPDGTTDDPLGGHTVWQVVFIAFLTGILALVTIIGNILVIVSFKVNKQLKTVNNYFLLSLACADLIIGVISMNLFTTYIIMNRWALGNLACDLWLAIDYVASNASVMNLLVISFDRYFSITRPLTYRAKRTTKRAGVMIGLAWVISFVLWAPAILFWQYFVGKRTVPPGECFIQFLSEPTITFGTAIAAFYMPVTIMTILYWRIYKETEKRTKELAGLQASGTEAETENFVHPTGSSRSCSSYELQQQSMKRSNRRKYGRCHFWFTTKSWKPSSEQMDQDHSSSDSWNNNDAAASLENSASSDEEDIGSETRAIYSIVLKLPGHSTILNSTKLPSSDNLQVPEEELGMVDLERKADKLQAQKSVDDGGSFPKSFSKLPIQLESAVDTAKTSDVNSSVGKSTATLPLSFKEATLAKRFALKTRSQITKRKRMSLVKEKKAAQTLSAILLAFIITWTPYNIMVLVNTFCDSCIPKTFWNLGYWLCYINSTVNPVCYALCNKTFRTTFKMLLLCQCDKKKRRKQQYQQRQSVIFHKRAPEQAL
Chain of 3',5'-cyclic-AMP phosphodiesterase 4B (Q07343 whole entry): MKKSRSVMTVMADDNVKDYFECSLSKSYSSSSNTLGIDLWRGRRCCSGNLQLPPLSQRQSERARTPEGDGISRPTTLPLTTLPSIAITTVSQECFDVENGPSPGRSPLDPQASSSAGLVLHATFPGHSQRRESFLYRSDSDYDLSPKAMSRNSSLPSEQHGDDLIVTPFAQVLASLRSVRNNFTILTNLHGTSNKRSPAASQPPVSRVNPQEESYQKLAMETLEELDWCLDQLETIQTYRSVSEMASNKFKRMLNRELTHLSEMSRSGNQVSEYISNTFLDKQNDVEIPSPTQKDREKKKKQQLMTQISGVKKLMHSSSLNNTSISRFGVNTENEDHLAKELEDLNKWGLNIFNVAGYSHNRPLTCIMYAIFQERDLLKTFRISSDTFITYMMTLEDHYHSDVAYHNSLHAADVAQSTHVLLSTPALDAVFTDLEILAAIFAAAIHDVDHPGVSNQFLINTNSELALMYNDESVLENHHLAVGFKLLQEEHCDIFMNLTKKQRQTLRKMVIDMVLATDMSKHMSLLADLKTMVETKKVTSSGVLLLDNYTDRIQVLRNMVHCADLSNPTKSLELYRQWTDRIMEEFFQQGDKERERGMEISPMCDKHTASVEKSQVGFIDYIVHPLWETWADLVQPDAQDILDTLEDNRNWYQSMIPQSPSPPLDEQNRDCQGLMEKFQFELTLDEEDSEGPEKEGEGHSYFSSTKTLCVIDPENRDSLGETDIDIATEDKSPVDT

Structure (SMILES)	IC50 [5] [nM]	microsomal CLint at 1 µM [8] [µL/min/mg]	IC50 [10] [nM]	ED50 (Rattus norvegicus [12]; [27]) [µmol/kg]	Ratio ED50 [13]	IC50 (Trachea) [nM]	Ki [14] [nM]	ED50 (Rattus norvegicus [15]) [µmol/kg]	half-life at 1 µM [16] [h]	half-life at 5 µM [17] [h]	half-life at 5 µM [18] [h]	CLH [7] [µL/min/mg]	pIC50 (Trachea)	t1/2 [19] [h]	further results
O=C(Nc1c(Cl)cncc1Cl)c1ccc(OC(F)F)c(OCC2CC2)c1 [ROFLUMILAST]	–	–	–	–	–	–	–	–	–	–	–	–	–	–	Activity [1]: Toxic; Activity [2]: Toxic; Activity [3]: Toxic; Activity [4]: Toxic
COc1ccc([C@H](Cc2c(Cl)c[n+]([O-])cc2Cl)OC(=O)c2ccc(CN[C@@H](C(=O)O[C@H]3CN4CCC3CC4)c3ccccc3)s2)cc1OC	1.58	213	1.58	0.0007	42	1	0.0631	0.03	1.15	0.15	0.183	–	–	–	Activity (Rattus norvegicus [6]): 67%; microsomal CLint at 1 µM ([7]; liver microsomes, read-out: CLH): 126 µL/min/mg; Activity (Rattus norvegicus [9]): 74%; IC50 [11]: 2 nM; half-life at 1 µM [19]: 0.25 h
COc1ccc([C@H](Cc2c(Cl)c[n+]([O-])cc2Cl)OC(=O)c2ccc(CNC(C)(C(=O)O[C@H]3CN4CCC3CC4)c3ccccc3)s2)cc1OC (stereo in doubt; 1s)	–	–	1.26	–	–	–	0.158	–	–	–	–	48	8.5	1.82	pIC50 [5]: 7.9; CLH [8]: 481 µL/min/mg; t1/2 [16]: 2.08 h; t1/2 [17]: 0.983 h; t1/2 ([18]; 3 h, 5 µM): 3.18 h
C[C@@H]1C[C@H]2[C@@H]3C[C@H](F)C4=CC(=O)C=C[C@]4(C)[C@@]3(F)[C@@H](O)C[C@]2(C)[C@@]1(OC(=O)c1ccco1)C(=O)SCF [FLUTICASONE FUROATE]	–	–	–	–	–	–	–	–	–	–	–	–	–	–	Activity (Rattus norvegicus [20]): >100%; Activity (Rattus norvegicus [21]): >100%
COc1ccc([C@H](Cc2c(Cl)c[n+]([O-])cc2Cl)OC(=O)c2ccc(CNC(CO)(C(=O)O[C@H]3CN4CCC3CC4)c3ccccc3)s2)cc1OC (stereo in doubt; 3s)	–	–	0.501	–	20	–	0.2	0.016	–	–	–	189	8.4	1.38	pIC50 [5]: 9.2; Activity (Rattus norvegicus [22]): 81%; CLH [8]: 196 µL/min/mg; ED50 (Rattus norvegicus [12]): 0.0008 µmol/kg; t1/2 [16]: 1.3 h; Activity (Rattus norvegicus [23]): 82%; t1/2 [17]: 1.95 h
COc1ccc([C@H](Cc2c(Cl)c[n+]([O-])cc2Cl)OC(=O)c2ccc(CNC(C)(C(=O)O[C@H]3CN4CCC3CC4)c3ccccc3)s2)cc1OC (stereo in doubt; 1f)	15.8	470	3.98	–	–	2.51	0.2	–	1.83	1.43	2.9	481	–	4.67	–
COc1ccc([C@H](Cc2c(Cl)c[n+]([O-])cc2Cl)OC(=O)c2ccc(CNC(CO)(C(=O)O[C@H]3CN4CCC3CC4)c3ccccc3)s2)cc1OCC1CC1 (stereo in doubt; 11f)	1.58	–	0.794	0.0079	–	–	0.398	–	–	–	–	–	7	–	Activity (Rattus norvegicus [24]): 80%
C[N+]1(C)[C@@H]2C[C@@H](OC(=O)C(O)(c3cccs3)c3cccs3)C[C@H]1[C@@H]1O[C@@H]12 [TIOTROPIUM]	–	–	–	–	–	–	–	–	–	–	–	–	–	–	inhibition at 10 min, 3000 µM [25]: 62%
CCOc1cc([C@H](Cc2c(Cl)c[n+]([O-])cc2Cl)OC(=O)c2ccc(CN[C@](CO)(C(=O)O[C@H]3CN4CCC3CC4)c3ccccc3)s2)ccc1OC	0.398	–	0.631	0.0031	7.7	3.98	0.251	0.024	–	–	–	–	–	–	Activity (Rattus norvegicus [22]): 89%; Activity (Rattus norvegicus [23]): 82%
COc1ccc([C@H](Cc2c(Cl)c[n+]([O-])cc2Cl)OC(=O)c2ccc(CNC(CO)(C(=O)O[C@H]3CN4CCC3CC4)c3ccccc3)s2)cc1OC (stereo in doubt; 3f)	0.501	331	0.631	–	–	–	0.631	–	1.32	2.1	> 4	32	7.4	–	ED50 (Rattus norvegicus [12]): 0.0029 µmol/kg; Activity (Rattus norvegicus [26]): 28%; half-life at 1 µM [19]: 1.37 h; Activity (Rattus norvegicus [24]): 88%
